Measurements taken from article PMC12722920, “Pharmacokinetics and pharmacodynamics of cannabigerol (CBG) in the C57BL/6Crl mouse” (Frontiers in Pharmacology, 2025).
Where two headings read alike, the source gives them in different places.

How the values were obtained:
C57BL/6Crl mice [1] = assay: Cannabinoid tetrad: internal body temperature (rectal thermometer); format: in vivo; conditions: for ED50: Mus musculus, iv
C57BL/6Crl mice [2] = assay: Cannabinoid tetrad: nociception by tail-flick latency; format: in vivo; conditions: for ED50: Mus musculus, iv
C57BL/6Crl mice [3] = assay: Open field test (OFT): locomotion and anxiety-like behaviour; format: in vivo
Experimental: Catalepsy was assessed in the ring holding assay; mice were positioned with their forepaws grasping onto a 0.5 cm thick ring clamp elevated 5 cm above the testing surface. The duration of time while the ring was held was recorded in seconds, with each trial terminated if the mouse’s forepaw released from the bar, upon turning of the head or body, or after 60 s of immobility. Catalepsy was evaluated three times consecutively, and the average time spent holding the bar was reported as a percent of the maximum possible effect (% MPE, up to 60 s). Internal body temperature was measured via a rectal thermometer. Nociception was determined by assessing tail-flick latency, where mice were restrained with their tails placed ∼1 cm into 52 °C ± 2 °C water. The time (sec) until the tail was removed was measured, with observations ending at 20 s and represented as a % MPE. Locomotion and anxiety-like behaviour were assessed in the OFT. Mice were placed in an open space (90 cm × 90 cm) and recorded for 5 min. Total distance travelled (cm), velocity (cm/sec), time in the centre quadrant (sec), and central quadrant entries were measured with EthoVision XT (Noldus Information Technology Inc., Leesburg, VA).
In Phase I (Part B), after determining the timepoint at which blood CBG concentrations were highest for each respective route of administration, the timing for each measure in the tetrad was adjusted. An assessment was conducted in a new cohort consisting of both male and female mice (n = 4 per sex per route) receiving a dose of 10 mg/kg of CBG via i.v., i.p., or p.o. routes. For those administered with i.v. CBG, the timing was: catalepsy at 5 min, body temperature at 15 min, tail-flick latency at 20 min, and OFT at 25 min post-injection. For i.p. CBG, measurements were taken at 20 min for catalepsy, 25 min for body temperature, 30 min for tail-flick latency, and 35 min for OFT post-injection. For p.o. CBG, data collection was scheduled as follows: catalepsy at 170 min, body temperature at 175 min, tail-flick latency at 180 min, and OFT at 185 min post-injection.

[4] = set-up: method as in Deiana et al., 2012; conditions: ref Deiana et al., 2012, cited from earlier work
CD-1 mice = tested on: CD-1 mice; set-up: method as in Schwarz et al., 2024; conditions: 100 mg/kg i.p., not at 10 or 320 mg/kg, ref Schwarz et al., 2024, cited from earlier work
male Sprague Dawley rats = tested on: male Sprague Dawley rats; set-up: method as in Jenkins et al., 2023; conditions: acute oral 100 mg/kg, 30 min post-administration; ref Jenkins et al., 2023; cited from earlier work
humans = tested on: humans; set-up: method as in Cuttler et al., 2024; conditions: oral 20 mg CBG; ref Cuttler et al., 2024; cited from earlier work
[5] = Phase II blood concentration 10 min after i.v. administration (HPLC-MS/MS)
[6] = 1, 3, 10 or 30 mg/kg i.v., male and female mice

Question: Which “body temperature vs vehicle” value (C57BL/6Crl mice [1]; 10 mg/kg i.p. or p.o., male mice, 15 min post-injection) does the source give for CCCCCc1cc(O)c(C/C=C(\C)CCC=C(C)C)c(O)c1 [CBG, cannabigerol] here?
Answer: Its value is “significant increase in temperature”.

Question: What about the “body temperature vs vehicle” value (C57BL/6Crl mice [1]; 10 mg/kg, all routes (i.v. 15 min, i.p. 25 min, p.o. 175 min), male and female mice) of the same compound?
Answer: Its value is “decreased body temperature compared to vehicle”.

Question: What about the “hypothermia, dose-response” value (C57BL/6Crl mice [1]; [6]) of the same compound?
Answer: The value was “produced a modest effect but only at the highest dose tested, 30 mg/kg”.

Question: And the ED50 (C57BL/6Crl mice [1]; 0.25 h, both sexes, 15 min post-administration)?
Answer: Its ED50 is > 30 mg/kg.

Question: What about the ED50 (C57BL/6Crl mice [1]; males) of the same compound?
Answer: Its ED50 is > 30 mg/kg.

Question: And the “effect on body temperature, dose-response” value (C57BL/6Crl mice [1]; i.v., Phase II)?
Answer: Its value is “did not alter body temperature”.

Question: What about the “anti-nociceptive response in tail-flick vs vehicle” value (C57BL/6Crl mice [2]; 10 mg/kg i.v., 20 min post-administration, male and female mice) of the same compound?
Answer: Its value is “produced an anti-nociceptive response”.

Question: And the tail-flick latency (C57BL/6Crl mice [2]; 10 mg/kg i.v., i.p. and p.o., male mice, 20 min post-injection)?
Answer: The tail-flick latency was “did not alter tail-flick latency”.

Question: And the “anti-nociception, dose-response” value (C57BL/6Crl mice [2]; [6])?
Answer: The value was “produced a modest effect but only at the highest dose tested, 30 mg/kg”.

Question: What about the “anti-nociceptive effect (tail-flick)” value (C57BL/6Crl mice [2]; CBG given i.p.) of the same compound?
Answer: The value was 10% ± 0.83%.

Question: What about the ED50 (C57BL/6Crl mice [2]; 20 min, i.v., both sexes, 20 min post-administration, read-out: ED50 tail-flick latency) of the same compound?
Answer: The ED50 was > 30 mg/kg.

Question: What about the ED50 (C57BL/6Crl mice [2]; both sexes, read-out: ED50 tail-flick latency, estimate exceeding the dose range (square brackets)) of the same compound?
Answer: The ED50 was > 30 mg/kg.

Question: What about the ED50 (C57BL/6Crl mice [2]; males, read-out: ED50 tail-flick latency) of the same compound?
Answer: Its ED50 is > 30 mg/kg.

Question: What about the “intoxication relative to THC, anti-nociception” value (C57BL/6Crl mice [2]; accounting for blood concentrations measured at 10 min, i.v.) of the same compound?
Answer: Its value is 3.6%.

Question: What about the “Intoxication ratio, tail-flick latency” value (C57BL/6Crl mice [2]; both sexes) of the same compound?
Answer: Its value is 0.036.

Question: What about the “Intoxication ratio, tail-flick latency” value (C57BL/6Crl mice [2]; females) of the same compound?
Answer: The value was 0.038.

Question: And the ED50 tail-flick latency (C57BL/6Crl mice [2]; i.v., females)?
Answer: Its ED50 tail-flick latency is > 30 mg/kg.

Question: What about the “OFT time in the center, CBG compared to THC” value (C57BL/6Crl mice [3]; 10 mg/kg i.p. or p.o.) of the same compound?
Answer: The value was “spent significantly more time in the center”.

Question: What about the OFT velocity (C57BL/6Crl mice [3]; 10 mg/kg i.p., CBG 35 min post-administration) of the same compound?
Answer: The OFT velocity was “reduced velocity compared to both i.p. vehicle and THC administration”.

Question: And the “OFT total distance travelled” value (C57BL/6Crl mice [3]; 10 mg/kg i.p., compared to i.p. THC)?
Answer: The value was “total distance travelled was reduced”.

Question: What about the “OFT entries to the center” value (C57BL/6Crl mice [3]; 10 mg/kg i.p., compared to vehicle) of the same compound?
Answer: Its value is “entered the center fewer times than their vehicle-treated counterparts”.

Question: And the OFT velocity (C57BL/6Crl mice [3]; 10 mg/kg i.v., 25 min post-administration, male and female mice)?
Answer: Its OFT velocity is “reduced velocity compared to vehicle treatment”.

Question: What about the “OFT total distance travelled” value (C57BL/6Crl mice [3]; 10 mg/kg i.v., compared to i.v. vehicle) of the same compound?
Answer: The value was “total distance travelled was reduced”.

Question: What about the “OFT time in the center” value (C57BL/6Crl mice [3]; 10 mg/kg i.v., compared to the vehicle) of the same compound?
Answer: The value was “Time in the center was reduced”.

Question: What about the “OFT entries to the center” value (C57BL/6Crl mice [3]; 10 mg/kg i.v., compared to vehicle) of the same compound?
Answer: The value was “entered the center fewer times than their vehicle-treated counterparts”.

Question: And the “OFT entries to the center” value (C57BL/6Crl mice [3]; 10 mg/kg p.o.)?
Answer: Its value is “entered the center of the OFT more times than mice given CBG i.v”.

Question: What about the OFT velocity (C57BL/6Crl mice [3]; 10 mg/kg p.o., CBG 185 min post-administration) of the same compound?
Answer: The OFT velocity was “reduced velocity compared to p.o. THC”.

Question: And the “time to peak plasma concentration (Tmax)” value ([4]; i.p.)?
Answer: Its value is 2 h.

Question: What about the “time to peak plasma concentration (Tmax)” value ([4]; p.o.) of the same compound?
Answer: The value was 0.5 h.

Question: What about the anti-nociception (CD-1 mice; 20 min post-injection) of the same compound?
Answer: The anti-nociception was “anti-nociception”.

Question: And the hypothermia (CD-1 mice; 30 min post-injection)?
Answer: Its hypothermia is “resulted in hypothermia”.

Question: And the anxiolytic effects (male Sprague Dawley rats)?
Answer: The anxiolytic effects was “did not produce anxiolytic effects”.

Question: What about the “reduction in anxiety levels from baseline” value (humans) of the same compound?
Answer: Its value is 26.5%.

Question: What about the “mean blood concentration of CBG relative to THC” value ([5]; 10 mg/kg i.v., higher than THC) of the same compound?
Answer: The value was “approximately 5 times”.

Question: What about the concentration at 10 min ([5]; both, C57BL/6Crl, mouse, whole blood, intravenous, 10 mg/kg) of the same compound?
Answer: The concentration at 10 min was 2700 ng/mL.
